Experiments:
[1] = Cytotoxicity against monkey LLC-MK2 cells incubated for 72 hrs by MTT assay; format: toxicity, cell-based, Macaca mulatta; conditions: rhesus monkey
[2] = test system: Trypanosoma cruzi; experiment: Antitrypanosomal activity against Trypanosoma cruzi Tulahuen lacZ expressing beta-galactosidase amastigotes infected in monkey LLC-MK2 cells assessed as inhibition of amastigotes pre-infected in cells for 48 hrs followed by compound addition and measured after 72 hrs by CPRG reagent based absorbance analysis; format: functional, organism-based
[3] = Selectivity index, ratio of CC50 for monkey LLC-MK2 cells to IC50 for Trypanosoma cruzi Tulahuen lacZ expressing beta-galactosidase amastigotes infected monkey LLC-MK2 cells; format: toxicity; conditions: read-out: Ratio CC50/IC50
[4] = test system: Leishmania amazonensis; experiment: Antileishmanial activity against Leishmania amazonensis IFLA/BR/1967/PH8 amastigotes infected in mouse peritoneal macrophage assessed as inhibition of parasite growth pre-infected in cells for 4 hrs followed by compound addition and measured after 24 hrs by Giemsa staining based analysis; format: functional, organism-based; conditions: IFLA/BR/1967/PH8, Peritoneal macrophage
[5] = Selectivity index, ratio of CC50 for cytotoxicity against monkey LLC-MK2 cells to IC50 for antileishmanial activity against Leishmania amazonensis IFLA/BR/1967/PH8 amastigotes infected in mouse peritoneal macrophage; format: toxicity, cell-based; conditions: read-out: Ratio CC50/IC50

Row | SMILES | IC50 [2] | CC50 at 72 h [1] | selectivity ratio [3] | IC50 [4] | selectivity ratio [5]
1 | O=[N+]([O-])c1nccn1Cc1cc(-c2ccc(N3CCN(c4ccccc4)CC3)cc2)no1 | > 100 µM | > 50 µM | > 1 | > 100 µM | > 0.5
2 | COc1ccc(-c2cn(-c3cc(OC)c(OC)c(OC)c3)nn2)cc1OC |  |  |  | 5.6 µM | 
3 | COc1ccc(-n2cc(-c3cc(OC)c(OC)c(OC)c3)nn2)cc1OC |  |  |  | 29.2 µM | 
4 | COc1cc(-c2cc(-c3ccc4c(c3)OCO4)no2)cc(OC)c1OC |  |  |  | 1.4 µM | 
5 | C[C@@H]1[C@H](O)[C@@H](C)/C=C/C=C/C=C/C=C/C=C/C=C/C=C/[C@H](O[C@@H]2O[C@H](C)[C@@H](O)[C@H](N)[C@@H]2O)C[C@@H]2O[C@](O)(C[C@@H](O)C[C@@H](O)[C@H](O)CC[C@@H](O)C[C@@H](O)CC(=O)O[C@H]1C)C[C@H](O)[C@H]2C(=O)O [AMPHOTERICIN B] |  | 22.8 µM |  | 2.3 µM | 9.87
6 | COc1ccc(-c2cc(-c3cc(OC)c(OC)c(OC)c3)on2)cc1OC |  |  |  | 0.4 µM | 
7 | N=C(N)c1ccc(OCCCCCOc2ccc(C(=N)N)cc2)cc1 [PENTAMIDINE] |  |  |  | 16.8 µM | 
8 | COc1cc(-c2cn(-c3cc(OC)c(OC)c(OC)c3)nn2)cc(OC)c1OC |  |  |  | 9.4 µM | 
9 | COc1cc(-c2cc(-c3cc(OC)c(OC)c(OC)c3)on2)cc(OC)c1OC |  |  |  | 2.9 µM | 
10 | COc1ccc(-c2cc(-c3cc(OC)c(OC)c(OC)c3)no2)cc1OC |  |  |  | 0.7 µM | 
11 | COc1cc(-n2cc(-c3ccc4c(c3)OCO4)nn2)cc(OC)c1OC |  |  |  | 4.4 µM | 

Second part, led by results:

Row | IC50 [2] | SMILES | CC50 at 72 h [1] | selectivity ratio [3] | IC50 [4] | selectivity ratio [5]
12 | 3.7 µM | O=[N+]([O-])c1nccn1Cc1cc(-c2ccc(Cl)cc2Cl)no1 | 43.2 µM | > 11.4 | 33.7 µM | 1.3
13 | 1 µM | COc1ccc(-c2cc(Cn3ccnc3[N+](=O)[O-])on2)cc1Cl | > 50 µM | > 49 | 31.3 µM | > 1.6
14 | 3.1 µM | O=[N+]([O-])c1nccn1Cc1cc(-c2ccncc2)no1 | > 50 µM | > 16.3 | 16.3 µM | > 3
15 | 5.1 µM | O=[N+]([O-])c1nccn1Cc1cc(-c2ccc(Br)cc2)no1 | 43 µM | 8.4 | 17.4 µM | > 2.5
16 | 40.4 µM | N#Cc1cccc(-c2cc(Cn3ccnc3[N+](=O)[O-])on2)c1 | > 50 µM | > 1.2 | 36.6 µM | > 1.4
17 | 31.4 µM | CSc1ccc(-c2cc(Cn3ccnc3[N+](=O)[O-])on2)cc1 | > 50 µM | > 1.6 | 22.4 µM | > 2.2
18 | 2.3 µM | O=[N+]([O-])c1nccn1Cc1cc(-c2ccc(N3CCCC3)cc2)no1 | > 50 µM | > 21.7 | 9.9 µM | > 5
19 | 3 µM | COc1ccc(-c2cc(Cn3ccnc3[N+](=O)[O-])on2)cc1O | > 50 µM | > 16.6 | 17.1 µM | > 2.9
20 | 6.2 µM | Nc1ccc(-c2cc(Cn3ccnc3[N+](=O)[O-])on2)cc1 | > 50 µM | > 8.1 | 21.7 µM | > 2.3
21 | 7.5 µM | O=[N+]([O-])c1nccn1Cc1cc(-c2ccc(N3CCCCC3)cc2)no1 | > 50 µM | > 6.7 | 31.1 µM | > 1.6
22 | 7.5 µM | O=[N+]([O-])c1nccn1Cc1cc(-c2ccccn2)no1 | > 50 µM | > 6.7 | 37.8 µM | > 1.3
23 | 9.3 µM | O=[N+]([O-])c1nccn1Cc1cc(-c2cccc(Cl)c2)no1 | > 50 µM | > 5.3 | 10.2 µM | > 4.9

— ChEMBL document CHEMBL5634085, “Design, synthesis and antitrypanosomatid activity of 2-nitroimidazole-3,5-disubstituted isoxazole compounds based on benznidazole” (Eur J Med Chem, 2023)
